# Assay results as given in patent US20260138961A1, “MODULATORS OF MITOCHONDRIAL DNA REPLICATION” (Pretzel Therapeutics, Inc., priority 2022, published 2026).
# Target: T1, POLγA:G848S (Homo sapiens, UniProt P54098, G848S)
# T1 sequence (P54098 1-1239 G848S): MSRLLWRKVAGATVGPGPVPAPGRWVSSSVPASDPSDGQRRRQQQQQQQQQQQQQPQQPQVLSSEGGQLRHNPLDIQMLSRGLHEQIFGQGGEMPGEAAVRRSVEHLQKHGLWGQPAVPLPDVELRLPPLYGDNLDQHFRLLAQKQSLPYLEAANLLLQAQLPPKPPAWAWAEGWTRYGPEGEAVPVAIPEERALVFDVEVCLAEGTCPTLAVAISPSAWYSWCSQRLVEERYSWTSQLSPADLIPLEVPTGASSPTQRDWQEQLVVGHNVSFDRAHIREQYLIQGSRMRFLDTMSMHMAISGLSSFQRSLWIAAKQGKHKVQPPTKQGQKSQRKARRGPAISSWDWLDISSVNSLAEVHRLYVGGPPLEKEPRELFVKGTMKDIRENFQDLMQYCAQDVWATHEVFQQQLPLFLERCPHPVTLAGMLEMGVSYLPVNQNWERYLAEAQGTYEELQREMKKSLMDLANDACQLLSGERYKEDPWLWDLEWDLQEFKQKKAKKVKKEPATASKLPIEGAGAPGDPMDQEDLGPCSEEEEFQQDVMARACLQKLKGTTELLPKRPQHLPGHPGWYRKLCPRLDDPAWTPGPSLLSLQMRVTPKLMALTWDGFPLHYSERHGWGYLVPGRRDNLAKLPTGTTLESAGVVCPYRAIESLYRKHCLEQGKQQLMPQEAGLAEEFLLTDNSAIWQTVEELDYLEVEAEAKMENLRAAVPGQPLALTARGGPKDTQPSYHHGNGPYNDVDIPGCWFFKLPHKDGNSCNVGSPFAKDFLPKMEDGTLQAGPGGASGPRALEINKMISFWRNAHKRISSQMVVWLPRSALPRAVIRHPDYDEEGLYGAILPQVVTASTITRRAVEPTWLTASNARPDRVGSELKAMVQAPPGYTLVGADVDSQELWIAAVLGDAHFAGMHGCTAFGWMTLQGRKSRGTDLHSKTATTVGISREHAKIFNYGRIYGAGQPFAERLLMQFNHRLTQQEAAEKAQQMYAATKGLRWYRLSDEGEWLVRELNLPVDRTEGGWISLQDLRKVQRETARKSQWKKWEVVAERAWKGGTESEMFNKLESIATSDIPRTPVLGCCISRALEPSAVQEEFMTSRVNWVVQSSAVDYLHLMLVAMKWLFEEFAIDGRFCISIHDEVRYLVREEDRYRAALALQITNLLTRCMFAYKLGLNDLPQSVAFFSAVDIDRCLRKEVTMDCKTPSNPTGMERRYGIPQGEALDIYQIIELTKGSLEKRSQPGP
# T1 sequence (Q9UHN1 1-485 partner): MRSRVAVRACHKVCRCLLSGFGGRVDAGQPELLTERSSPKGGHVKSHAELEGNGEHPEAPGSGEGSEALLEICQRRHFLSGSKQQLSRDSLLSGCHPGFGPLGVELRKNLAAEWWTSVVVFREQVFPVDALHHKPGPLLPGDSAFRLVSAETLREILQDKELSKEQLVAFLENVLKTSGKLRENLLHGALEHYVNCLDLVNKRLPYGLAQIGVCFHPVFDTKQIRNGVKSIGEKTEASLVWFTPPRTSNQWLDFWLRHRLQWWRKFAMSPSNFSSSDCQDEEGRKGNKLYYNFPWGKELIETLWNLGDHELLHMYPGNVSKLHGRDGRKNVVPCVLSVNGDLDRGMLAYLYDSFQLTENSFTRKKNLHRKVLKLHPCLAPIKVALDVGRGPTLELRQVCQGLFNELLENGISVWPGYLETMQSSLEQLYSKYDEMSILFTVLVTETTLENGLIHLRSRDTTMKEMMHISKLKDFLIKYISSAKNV
# Test: DNA polymerization assay, POLγA:G848S mutant
# Type: biochemical
# Conditions: stimulation of polymerase activity, primed M13mp18 ssDNA, 37° C. 2 hours; read-out: G848S AC50
# Description: DNA Polymerization Assay to Monitor Effects on Human Wildtype POLγ and Four Disease-Causing Mutant Variants of Human POLγ.
# The ability of small molecules to stimulate the polymerase activity of POLγ was analyzed in a quantitative fluorescence SYBR Green I assay with fluorescence intensity (FI) readout.
# In the presence of dNTPs, wild type human POLγ and mutant derivatives thereof were incubated with single-stranded, circular M13mp18 ssDNA hybridized to a short DNA oligonucleotide that functions as a primer for initiation of DNA synthesis. POLγ and mutant derivatives thereof will extend the primer and use the M13mp18 molecule as a template to synthesize long stretches of double-stranded DNA. SYBR Green I, which is a double-stranded DNA-binding dye, was used to quantify formation of double-stranded DNA in the reaction. When bound to double-stranded DNA, SYBR Green I fluorescence increases by up to 100-fold.
# The assay was performed in the 384-well plate format. Upon addition of compounds, changes in double-stranded DNA synthesis activity can be monitored by following effects on fluorescent intensity.
# The reactions also contained the accessory POLγB subunit, and the human mitochondrial single-stranded DNA binding protein (mtSSB).
# The DNA template mixture used in the assay contained 0.5 nM primed M13 mp18 ssDNA, 400 nM mtSSB, 0.1 mM Tris-HCl (pH 8.0), 0.1 mM dNTP, 10 mM MgCl2, 0.1 mg/mL BSA, 1 mM TCEP solution, and 0.02% Triton X-100. The DNA template mixture for the wild type protein contained either 100 μM dNTP, 1 μM dNTP, or 0.1 μM dNTP, designated in Table 2 as 100 μM, 1 μM, and 0.1 μM, respectfully.
# Microplates with compounds (0.1 μL in each well) to be tested in the assay were prepared from 10 mM compound stocks in 100% DMSO, and equal amounts of DMSO without any compound were added to positive and negative control wells.
# The protein mixture was dispensed (5 μL into each well) into compound plates and incubated at 37° C. for 15 minutes. After incubation, 5 μL of the DNA template mixture was dispensed into each well. The plates were then incubated at 37° C. for 2 hours.
# During incubation, a combined stop buffer and detection reagent solution was prepared. The buffer contained 25 mM EDTA (pH 8.0), 0.02% Triton X-100, and SYBR Green I [Invitrogen] diluted 10,000× (for fluorescent readout). EDTA will stop the enzymatic reaction by chelating magnesium ions.
row,Structure (SMILES),AC50 [µM]
1,"Cc1cc(S(=O)(=O)Nc2cccc(C(=O)N3CCCC[C@H]3C)c2)c(C)cc1Cl [Example 9, (R)-4-chloro-2,5-dimethyl-N-(3-(2-methylpiperidine-1-carbonyl)phenyl)benzenesulfonamide]",6
2,"Cc1cc(S(=O)(=O)Nc2cccc(-c3nccs3)c2)c(C)cc1Cl [Example 16, 4-chloro-2,5-dimethyl-N-(3-(thiazol-2-yl)phenyl)benzenesulfonamide]",2
3,"Cc1cc(S(=O)(=O)N[C@@H]2CCCN(C(=O)[C@H]3CCCN3C)C2)c(C)cc1Cl [Example 100, 4-chloro-2,5-dimethyl-N-((R)-1-(methyl-D-prolyl)piperidin-3-yl)benzenesulfonamide]",> 100
4,"Cc1cc(S(=O)(=O)Nc2cccc(-c3ncc(C#N)s3)c2)c(C)cc1Cl [Example 96, 4-chloro-N-(3-(5-cyanothiazol-2-yl)phenyl)-2,5-dimethylbenzenesulfonamide]",4
5,"CNC(=O)c1cnc(-c2cccc(NS(=O)(=O)c3cc(C)c(Cl)cc3C)c2)s1 [Example 93, 2-(3-((4-chloro-2,5-dimethylphenyl)sulfonamido)phenyl)-N-methylthiazole-5-carboxamide]",9
6,"Cc1cc(S(=O)(=O)Nc2cccc(-c3ccn(C)n3)c2)c(C)cc1Cl [Example 18, 4-chloro-2,5-dimethyl-N-(3-(1-methyl-1H-pyrazol-3-yl)phenyl)benzenesulfonamide]",8
7,"Cc1cc(S(=O)(=O)Nc2cccc(C(=O)N3CCC[C@H]3C)c2)c(C)cc1Cl [Example 10, (R)-4-chloro-2,5-dimethyl-N-(3-(2-methylpyrrolidine-1-carbonyl)phenyl)benzenesulfonamide]",3
8,"Cc1cc(S(=O)(=O)Nc2cccc(C(=O)NCc3ccccc3)c2)c(C)cc1Cl [Example 11, N-benzyl-3-((4-chloro-2,5-dimethylphenyl)sulfonamido)benzamide]",34
9,"Cc1cc(S(=O)(=O)Nc2cccc(C(=O)N3C[C@@H](F)C[C@H](F)C3)c2)c(C)cc1Cl [Example 115, 4-chloro-N-(3-((3S,5S)-3,5-difluoropiperidine-1-carbonyl)phenyl)-2,5-dimethylbenzenesulfonamide]",> 100
10,"Cc1cc(S(=O)(=O)N[C@H]2CCCN(C(=O)[C@@H]3CCCN3C)C2)c(C)cc1Cl [Example 101, 4-chloro-2,5-dimethyl-N-((S)-1-(methyl-L-prolyl)piperidin-3-yl)benzenesulfonamide]",> 100
11,"Cc1cc(Cl)ccc1S(=O)(=O)Nc1cccc(C(=O)N2CCC[C@H]2C)c1 [Example 116, (R)-4-chloro-2-methyl-N-(3-(2-methylpyrrolidine-1-carbonyl)phenyl)benzenesulfonamide]",9
12,"Cc1cnc(-c2ccc(C)c(NS(=O)(=O)c3cc(C)c(Cl)cc3C)c2)s1 [Example 98, 4-chloro-2,5-dimethyl-N-(2-methyl-5-(5-methylthiazol-2-yl)phenyl)benzenesulfonamide]",9
13,"Cc1cc(S(=O)(=O)Nc2cccc(-c3ncco3)c2)c(C)cc1Cl [Example 17, 4-chloro-2,5-dimethyl-N-(3-(oxazol-2-yl)phenyl)benzenesulfonamide]",6
14,"Cc1cnc(-c2ccc(Cl)c(NS(=O)(=O)c3cc(C)c(Cl)cc3C)c2)s1 [Example 102, 4-chloro-N-(2-chloro-5-(5-methylthiazol-2-yl)phenyl)-2,5-dimethylbenzenesulfonamide]",0.4
15,"Cc1ccc(C)c(S(=O)(=O)Nc2cccc(C(=O)N3CCCCC3)c2)c1 [Example 3, 2,5-dimethyl-N-(3-(piperidine-1-carbonyl)phenyl)benzene sulfonamide]",31

# The remaining lines, values ahead:
row,AC50 [µM],Structure (SMILES)
1,> 100,"O=S(=O)(Nc1csc(-c2ccccc2)n1)c1cccc2nccnc12 [Example 128, N-(2-phenylthiazol-4-yl)quinoxaline-5-sulfonamide]"
2,2,"Cc1cc(S(=O)(=O)Nc2csc(-c3ccccc3)n2)c(Cl)cc1F [Example 136, 2-chloro-4-fluoro-5-methyl-N-(2-phenylthiazol-4-yl)benzenesulfonamide]"
3,> 100,"O=S(=O)(Nc1csc(-c2ccccc2)n1)c1ccccn1 [Example 139, N-(2-phenylthiazol-4-yl)pyridine-2-sulfonamide]"
4,> 100,"Cc1cc(S(=O)(=O)Nc2nc(-c3ccccc3)no2)c(C)cc1Cl [Example 143, 4-chloro-2,5-dimethyl-N-(3-phenyl-1,2,4-oxadiazol-5-yl)benzenesulfonamide]"
5,> 100,"O=S(=O)(Nc1csc(-c2ccccc2)n1)c1ccc(F)cc1F [Example 140, 2,4-difluoro-N-(2-phenylthiazol-4-yl)benzenesulfonamide]"
6,> 100,"O=S(=O)(Nc1csc(-c2ccccc2)n1)c1ccc(F)cc1Cl [Example 126, 2-chloro-4-fluoro-N-(2-phenylthiazol-4-yl)benzenesulfonamide]"
7,7,"O=S(=O)(Nc1csc(-c2ccccc2)n1)c1ccccc1Cl [Example 125, 2-chloro-N-(2-phenylthiazol-4-yl)benzenesulfonamide]"
8,2,"O=S(=O)(Nc1csc(-c2ccccc2)n1)c1cccc(C(F)(F)F)c1 [Example 151, N-(2-phenylthiazol-4-yl)-3-(trifluoromethyl)benzenesulfonamide]"
9,> 100,"Cc1cc(S(=O)(=O)Nc2csc(-c3ccccc3)n2)ccc1Cl [Example 148, 4-chloro-3-methyl-N-(2-phenylthiazol-4-yl)benzenesulfonamide]"
10,> 100,"O=S(=O)(Nc1csc(-c2ccccc2)n1)c1ccccc1 [Example 147, N-(2-phenylthiazol-4-yl)benzenesulfonamide]"
11,> 100,"O=S(=O)(Nc1csc(-c2ccccc2)n1)c1ccc(C(F)(F)F)cc1 [Example 127, N-(2-phenylthiazol-4-yl)-4-(trifluoromethyl)benzenesulfonamide]"
